The values that follow come from ChEMBL document CHEMBL4265951, “Multi-target-directed ligands for Alzheimer's disease: Discovery of chromone-based monoamine oxidase/cholinesterase inhibitors” (Eur J Med Chem, 2018).

Usually IC50 stands for the concentration needed to halve the response being measured. Broadly, the Papp is a coefficient for how fast a substance crosses the barrier. A lower Papp goes with poor permeation. By Ki is commonly meant the equilibrium dissociation constant of an inhibitor or competing ligand from its target.

Molecules are shown by their SMILES. The source made the active and inactive calls. The calls are words filed in the database; no cut-off is given here. Some results are limits rather than exact numbers.

Data set [1] deals with T1, Acetylcholinesterase (Homo sapiens, UniProt P22303). The experiment in a line: Inhibition of human AChE using acetylthiocholine iodide as substrate pretreated for 5 mins followed by substrate addition measured after 5 mins by Ellman's method.
Data set [2] concerns the target T2, Amine oxidase [flavin-containing] B (Homo sapiens, UniProt P27338).
T2 sequence (P27338 whole entry): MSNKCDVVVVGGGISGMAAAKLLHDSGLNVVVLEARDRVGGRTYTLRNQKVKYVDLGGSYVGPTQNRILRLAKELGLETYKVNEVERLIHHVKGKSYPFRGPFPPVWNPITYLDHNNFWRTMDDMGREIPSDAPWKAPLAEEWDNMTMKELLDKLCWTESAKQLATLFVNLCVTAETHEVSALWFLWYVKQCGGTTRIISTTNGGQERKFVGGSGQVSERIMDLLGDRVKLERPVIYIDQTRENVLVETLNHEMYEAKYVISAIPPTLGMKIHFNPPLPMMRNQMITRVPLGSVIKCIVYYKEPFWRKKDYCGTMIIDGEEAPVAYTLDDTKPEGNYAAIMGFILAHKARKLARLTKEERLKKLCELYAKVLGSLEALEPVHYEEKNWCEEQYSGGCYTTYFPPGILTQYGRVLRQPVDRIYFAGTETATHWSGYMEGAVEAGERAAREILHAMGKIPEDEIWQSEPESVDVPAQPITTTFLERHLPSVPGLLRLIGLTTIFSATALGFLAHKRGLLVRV
The experiment in a line: Inhibition of human recombinant MAOB expressed in baculovirus infected BTI-TN-5B1- 4 cells using p-tyramine as substrate assessed as decrease in H2O2 production at 10 uM by amplex red-based fluorescence assay.

Data set [3] concerns the target T3, Cholinesterase (Homo sapiens, UniProt P06276). The data set is described as follows: Inhibition of human serum BuChE at 10 uM using butyrylthiocholine as substrate pretreated for 5 mins followed by substrate addition measured after 5 mins by Ellman's method. (Ellman's reagent forms a yellow product with free thiols.)
The target of data set [4] is T4, Amine oxidase [flavin-containing] A (Homo sapiens, UniProt P21397).
T4 sequence (P21397 whole entry): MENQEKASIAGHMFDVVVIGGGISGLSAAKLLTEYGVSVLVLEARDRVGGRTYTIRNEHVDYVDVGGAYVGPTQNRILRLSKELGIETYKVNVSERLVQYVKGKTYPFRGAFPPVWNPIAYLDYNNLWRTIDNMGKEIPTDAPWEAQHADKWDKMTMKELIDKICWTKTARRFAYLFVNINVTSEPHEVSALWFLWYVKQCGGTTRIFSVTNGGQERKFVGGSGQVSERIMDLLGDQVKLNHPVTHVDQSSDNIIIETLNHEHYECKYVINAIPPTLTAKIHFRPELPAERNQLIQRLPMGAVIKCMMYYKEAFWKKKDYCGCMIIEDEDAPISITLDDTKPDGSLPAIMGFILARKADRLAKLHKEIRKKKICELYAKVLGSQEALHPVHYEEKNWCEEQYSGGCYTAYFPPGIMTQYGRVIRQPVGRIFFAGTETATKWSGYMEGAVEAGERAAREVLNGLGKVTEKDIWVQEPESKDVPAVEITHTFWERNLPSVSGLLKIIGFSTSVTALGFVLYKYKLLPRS
The experiment in a line: biochemical.
Description: Inhibition of human recombinant microsomal MAOA expressed in baculovirus infected BTI-TN-5B1- 4 cells using p-tyramine as substrate assessed as decrease in H2O2 production by amplex red-based fluorescence assay

A short description of data set [5]: in vitro. The conditions noted are these: PAMPA. For orientation: PAMPA measures passive passage across an artificial lipid membrane.
Description: Effective permeability of the compound at 1 mg/ml after 4 hrs by BBB-PAMPA method
A short description of data set [6]: in vitro. The conditions noted are these: PAMPA. This is another data set of the same source.
Description: Effective permeability of the compound at 25 ug/ml after 18 hrs by BBB-PAMPA method
Data set [7] addresses T4, Amine oxidase [flavin-containing] A. The data set is described as follows: Inhibition of human recombinant microsomal MAOA expressed in baculovirus infected BTI-TN-5B1- 4 cells using p-tyramine as substrate assessed as decrease in H2O2 production at 100 uM by amplex red-based fluorescence assay.
Data set [8] deals with HepG2. The data set is described as follows: Cytotoxicity against human HepG2 cells assessed as reduction in cell viability at 0.1 to 50 uM after 48 hrs by resazurin reduction assay. The conditions noted are these: hepg2, 48 h. It counts as cell-based.
The test system of data set [9] is SH-SY5Y. The experiment in a line: Cytotoxicity against human SH-SY5Y cells assessed as reduction in cell viability at 0.1 to 50 uM after 48 hrs by resazurin reduction assay. It counts as cell-based. (In general: Resazurin is reduced to fluorescent resorufin, in cell work by metabolically active cells.)
Data set [10] deals with T2, Amine oxidase [flavin-containing] B. The data set is described as follows: biochemical. It counts as cell-based.
Description: Inhibition of human recombinant MAOB expressed in baculovirus infected BTI-TN-5B1- 4 cells using p-tyramine as substrate assessed as decrease in H2O2 production by amplex red-based fluorescence assay
In a further data set the target is Beta-secretase 1 (Homo sapiens, UniProt P56817). The experiment in a line: Inhibition of human BACE1 using rhodamine-EVNLDAEFK-quencher as substrate after 60 mins by FRET assay.
Data set [11] has as its system SH-SY5Y. The experiment in a line: Cytotoxicity against human SH-SY5Y cells assessed as reduction in cell viability at 0.1 to 50 uM after 48 hrs by SRB assay. The data set is classed as cell-based.
The target of data set [12] is T4, Amine oxidase [flavin-containing] A. The experiment in a line: Inhibition of human recombinant microsomal MAOA expressed in baculovirus infected BTI-TN-5B1- 4 cells using p-tyramine as substrate assessed as decrease in H2O2 production at 10 uM by amplex red-based fluorescence assay.
In data set [13] the test system is HepG2. The experiment in a line: Cytotoxicity against human HepG2 cells assessed as reduction in cell viability at 0.1 to 50 uM after 48 hrs by SRB assay. The data set is classed as cell-based. The conditions noted are these: hepg2, 48 h.
For data set [14], the system named is SH-SY5Y. The experiment in a line: Cytotoxicity against human SH-SY5Y cells assessed as reduction in cell viability at 25 to 50 uM after 48 hrs by resazurin reduction assay. It counts as cell-based.
Data set [15] addresses T4, Amine oxidase [flavin-containing] A. The data set is described as follows: Reversible competitive inhibition of human recombinant microsomal MAOA expressed in baculovirus infected BTI-TN-5B1- 4 cells using p-tyramine as substrate assessed as decrease in H2O2 production by Dixon plot analysis.
For data set [16], the target named is T2, Amine oxidase [flavin-containing] B. The experiment in a line: Competitive inhibition of human recombinant microsomal MAOB expressed in baculovirus infected BTI-TN-5B1- 4 cells using p-tyramine as substrate assessed as decrease in H2O2 production at 500 to 1000 nM by Lineweaver-Burk plot analysis.
Data set [17] deals with T4, Amine oxidase [flavin-containing] A. The experiment in a line: Competitive inhibition of human recombinant microsomal MAOA expressed in baculovirus infected BTI-TN-5B1- 4 cells using p-tyramine as substrate assessed as decrease in H2O2 production at 1000 to 2000 nM by Lineweaver-Burk plot analysis.
Data set [18] is described as follows: Cytotoxicity against human SH-SY5Y cells assessed as cell mass at 50 uM after 48 hrs by SRB assay relative to control. It counts as cell-based. Conditions: read-out: Activity.
In data set [19] the target is T2, Amine oxidase [flavin-containing] B. The data set is described as follows: Reversible competitive inhibition of human recombinant microsomal MAOB expressed in baculovirus infected BTI-TN-5B1- 4 cells using p-tyramine as substrate assessed as decrease in H2O2 production by Dixon plot analysis.
Data set [20] has as its target T4, Amine oxidase [flavin-containing] A. The data set is described as follows: Reversible inhibition of human recombinant microsomal MAOA expressed in baculovirus infected BTI-TN-5B1- 4 cells using p-tyramine as substrate assessed as decrease in H2O2 production at IC80 after 60 mins. The conditions noted are these: 1 h.
Data set [21] addresses T1, Acetylcholinesterase. The experiment in a line: Mixed type inhibition of human AChE using acetylthiocholine iodide as substrate pretreated for 5 mins followed by substrate addition measured after 5 mins by Dixon plot analysis.
The target of data set [22] is T1, Acetylcholinesterase. The data set is described as follows: Mixed type inhibition of human AChE at 0.05 to 0.20 uM using acetylthiocholine iodide as substrate pretreated for 5 mins followed by substrate addition measured after 5 mins by Lineweaver burk plot analysis.
Data set [23] deals with T1, Acetylcholinesterase. The experiment in a line: Inhibition of human AChE at 10 uM using acetylthiocholine iodide as substrate pretreated for 5 mins followed by substrate addition measured after 5 mins by Ellman's method.
Data set [24] has as its target T3, Cholinesterase. The data set is described as follows: Inhibition of human serum BuChE using butyrylthiocholine as substrate pretreated for 5 mins followed by substrate addition measured after 5 mins by Ellman's method.

Chain of Beta-secretase 1 (P56817 whole entry): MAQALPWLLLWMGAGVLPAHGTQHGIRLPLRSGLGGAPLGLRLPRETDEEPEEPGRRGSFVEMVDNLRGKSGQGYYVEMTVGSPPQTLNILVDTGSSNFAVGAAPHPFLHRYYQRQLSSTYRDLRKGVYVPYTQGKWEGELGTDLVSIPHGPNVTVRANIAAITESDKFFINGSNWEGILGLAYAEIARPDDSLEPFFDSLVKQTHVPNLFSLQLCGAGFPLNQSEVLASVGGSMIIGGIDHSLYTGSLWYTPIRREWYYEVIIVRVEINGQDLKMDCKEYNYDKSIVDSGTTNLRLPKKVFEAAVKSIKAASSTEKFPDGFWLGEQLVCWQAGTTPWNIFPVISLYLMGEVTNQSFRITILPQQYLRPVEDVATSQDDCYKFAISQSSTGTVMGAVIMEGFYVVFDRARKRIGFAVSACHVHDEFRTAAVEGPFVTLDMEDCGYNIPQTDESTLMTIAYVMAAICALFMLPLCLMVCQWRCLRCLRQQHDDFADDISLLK
T1 sequence (P22303 whole entry): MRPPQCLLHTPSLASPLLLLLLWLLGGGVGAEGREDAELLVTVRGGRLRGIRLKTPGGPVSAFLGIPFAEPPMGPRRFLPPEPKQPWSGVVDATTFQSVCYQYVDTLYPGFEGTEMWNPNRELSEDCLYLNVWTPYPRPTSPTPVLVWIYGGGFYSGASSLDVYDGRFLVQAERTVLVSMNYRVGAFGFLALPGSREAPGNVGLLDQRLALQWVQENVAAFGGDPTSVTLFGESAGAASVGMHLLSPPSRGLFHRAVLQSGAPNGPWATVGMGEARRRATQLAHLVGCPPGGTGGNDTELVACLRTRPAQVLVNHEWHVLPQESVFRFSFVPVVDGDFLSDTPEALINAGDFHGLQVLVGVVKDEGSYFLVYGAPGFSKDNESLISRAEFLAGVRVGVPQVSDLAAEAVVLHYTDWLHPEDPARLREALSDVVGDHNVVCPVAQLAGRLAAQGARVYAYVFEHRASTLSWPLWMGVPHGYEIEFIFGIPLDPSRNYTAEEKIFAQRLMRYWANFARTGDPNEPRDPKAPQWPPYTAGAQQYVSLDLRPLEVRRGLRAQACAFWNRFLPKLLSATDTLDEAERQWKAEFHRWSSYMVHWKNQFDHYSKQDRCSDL
T3 sequence (P06276 whole entry): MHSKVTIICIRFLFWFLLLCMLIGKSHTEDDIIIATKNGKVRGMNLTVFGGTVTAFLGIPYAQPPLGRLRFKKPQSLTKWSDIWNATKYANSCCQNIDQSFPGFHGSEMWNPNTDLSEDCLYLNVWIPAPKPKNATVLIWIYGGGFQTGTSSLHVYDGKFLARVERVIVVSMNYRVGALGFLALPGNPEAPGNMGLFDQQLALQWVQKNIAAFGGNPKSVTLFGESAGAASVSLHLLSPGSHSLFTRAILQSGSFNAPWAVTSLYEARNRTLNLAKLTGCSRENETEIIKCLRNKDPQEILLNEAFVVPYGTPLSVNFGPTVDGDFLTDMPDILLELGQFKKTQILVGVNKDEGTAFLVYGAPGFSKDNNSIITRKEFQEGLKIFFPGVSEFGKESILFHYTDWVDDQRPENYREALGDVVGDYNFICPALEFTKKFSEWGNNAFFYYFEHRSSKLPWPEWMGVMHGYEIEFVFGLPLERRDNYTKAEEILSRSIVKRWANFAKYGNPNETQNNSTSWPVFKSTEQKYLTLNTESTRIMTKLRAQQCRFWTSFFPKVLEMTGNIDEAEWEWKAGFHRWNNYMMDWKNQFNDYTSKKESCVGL

As to `COc1ccc(NC(=O)c2cc(=O)c3cc(/C=C/C(=O)OCCN(C)C)ccc3o2)cc1`, the results for the 50% inhibitory concentration (IC50) (at Acetylcholinesterase [1]; in data set [4]) were 910 nM and 4910 nM, respectively. The “inhibition (INH)” value in data set [2] is reported as “Not Active”. The inhibition result at Cholinesterase [3] was “inactive”.

With `C[C@]12CCC(=O)C=C1CC[C@@H]1[C@@H]2[C@@H](O)C[C@]2(C=O)[C@@H](C(=O)CO)CC[C@@H]12` [ALDOSTERONE], the Papp at 4 h, 1 mg/ml in “in vitro [5]” amounted to 1 ×10⁻⁶ cm/s. This compound also showed a Papp at 18 h, 25 ug/ml in “in vitro [6]” of 1.2 ×10⁻⁶ cm/s.

As for `C[C@H](NCc1ccc(OCc2cccc(F)c2)cc1)C(N)=O` [SAFINAMIDE], the “inhibition (INH)” value in data set [7] is recorded as “Not Active”.

For the compound `O=C(O)/C=C/c1ccc2occ(C(=O)Nc3ccccc3)c(=O)c2c1`, the Activity result in the data set with HepG2 [8], with SH-SY5Y [9], with SH-SY5Y [11] and with HepG2 [13] was “Non-Toxic” each time. Also, the 50% inhibitory concentration (IC50) was 4660 nM in data set [10], 9250 nM at Acetylcholinesterase [1] and over 10000 nM against Beta-secretase 1. Besides, the “inhibition (INH)” value in [12] is listed as “Not Active”. The inhibition result at Cholinesterase [3] is “inactive”. This compound had an apparent permeability coefficient (Papp) at 4 h, 1 mg/ml in the data set “in vitro [5]” of 1.2 ×10⁻⁶ cm/s.

As to `Cc1ccc(NC(=O)c2cc(=O)c3cc(/C=C/C(=O)OCCN(C)C)ccc3o2)cc1`, in the data set on SH-SY5Y [14], the Activity entry is given as “Toxic”. Moreover, the Ki in data set [15] came to 57 nM; in data set [19], 478 nM; on Acetylcholinesterase [21] it was 190 nM. Moreover, the “inhibition (INH)” value in data set [16], in [17] and in [20] was “Active” in each case. The IC50 in data set [10] was 3810 nM; on Acetylcholinesterase [1], 210 nM; against Beta-secretase 1, over 10000 nM; in data set [4], 940 nM. In addition, the viability at 48 h, 50 µM in [18] came to 44%. Further, on Cholinesterase [3], the inhibition result was “inactive”. Besides, the inhibition result on Acetylcholinesterase [22] was “Active”. This compound also displayed a Papp at 4 h, 1 mg/ml in the data set “in vitro [5]” of 5.2 ×10⁻⁶ cm/s.

As for `Cc1ccc(NC(=O)c2coc3ccc(/C=C/C(=O)O)cc3c2=O)cc1`, the “inhibition (INH)” value in [12] and in data set [2] was “Not Active” in each case. Besides, the inhibition entry on Acetylcholinesterase [23] and at Cholinesterase [3] was “inactive” throughout. The same compound came in with a Papp at 4 h, 1 mg/ml in the data set “in vitro [5]” of 1.6 ×10⁻⁶ cm/s.

Take `CN(C)CCOC(=O)/C=C/c1ccc2occ(C(=O)Nc3ccccc3)c(=O)c2c1`: the Activity entry in the data set with HepG2 [8], in the data set on SH-SY5Y [9], with SH-SY5Y [11] and in the data set on HepG2 [13] was “Non-Toxic” each time. The entries for the “inhibition (INH)” value in data set [16] and in data set [12] were “Active” and “Not Active”, respectively. For the same compound, the IC50 in data set [10] was 630 nM; on Acetylcholinesterase [1] it was 3690 nM; at Cholinesterase [24] it was 4320 nM; on Beta-secretase 1, over 10000 nM. In [19], the Ki was found to be 337 nM. The compound also gave an apparent permeability (Papp) at 4 h, 1 mg/ml in the data set “in vitro [5]” of 6.4 ×10⁻⁶ cm/s.

As for `CN(C)CCOC(=O)/C=C/c1ccc2oc(C(=O)Nc3ccccc3)cc(=O)c2c1`, the IC50 in [10] is 2280 nM; at Acetylcholinesterase [1] it was 740 nM; at Cholinesterase [24] it was 1570 nM; against Beta-secretase 1 it was over 10000 nM. Further, the “inhibition (INH)” value in data set [12] was “Not Active”. The compound further gave a Papp at 4 h, 1 mg/ml in the data set “in vitro [5]” of 3.6 ×10⁻⁶ cm/s.

On to `Cc1ccc(NC(=O)c2coc3ccc(/C=C/C(=O)OCCN(C)C)cc3c2=O)cc1`, for which the IC50 is 2370 nM in [10], 970 nM on Acetylcholinesterase [1], 7420 nM on Cholinesterase [24] and over 10000 nM on Beta-secretase 1. In addition, the “inhibition (INH)” value in data set [12] is “Not Active”. Also, the apparent permeability (Papp) at 4 h, 1 mg/ml in “in vitro [5]” turned out to be 9.7 ×10⁻⁶ cm/s.
